Marks after values point to notes of the source that are not given here.
How the values were obtained:
MDCK-MDR1 monolayers [1] = settings: MDCK-MDR1 monolayer characterization; cited from earlier work
Caco-2 monolayers [2] = settings: Caco-2 monolayer characterization; cited from earlier work
DA uptake = settings: read-out: DA Uptake IC50; mean ± SEM; cited from earlier work
MDCK-MDR1 monolayers [3] = assay: Bidirectional transport and verapamil inhibition across MDCK-MDR1 monolayers; type: in vitro ADME; settings: MDCK-MDR1
Caco-2 monolayers [4] = assay: Bidirectional transport and verapamil inhibition across Caco-2 monolayers; type: in vitro ADME; settings: 0.1 mM, absence of verapamil, mean ± SD (n = 3)
[5] = system: extracellular levels of DA in the nucleus accumbens (NAc); settings: cited from earlier work
[6] = 0.1 mM, absence of verapamil, mean ± SD (n = 3)

CC(C)NCC(O)COc1cccc2ccccc12 (centres unmarked) [propranolol]
Papp of marker compounds (MDCK-MDR1 monolayers [1]): 24.33 ×10⁻⁶ cm/s
Papp of marker compounds (Caco-2 monolayers [2]): 13.34 ×10⁻⁶ cm/s

CN1[C@@H]2CC[C@H]1C[C@@H](OC(c1ccccc1)c1ccccc1)C2 [BZT, benztropine, reference compound]
IC50 (DA uptake): 403 ± 115 nM

C[N+]1(C)C2CCC1CC(OC(c1ccc(F)cc1)c1ccc(F)cc1)C2 (stereo not drawn) [JHW 025, N-(dimethyl)-3α-[(bis-4′-fluorophenyl)methoxy]tropane, reference compound]
Efflux Ratio (MDCK-MDR1 monolayers [3]; 0.1 mM, Papp(B-A)/Papp(A-B)): 1.5
Papp A-B (MDCK-MDR1 monolayers [3]; [6]): 5.00 ± 0.31 × 10^−6 cm/s
Papp B-A (MDCK-MDR1 monolayers [3]; [6]): 7.39 ± 1.17 × 10^−6 cm/s
Enhancement ratio of A-B transport by verapamil (MDCK-MDR1 monolayers [3]; verapamil 200 μM): 1.2
Papp A-B (Caco-2 monolayers [4]): <0.34 ^a × 10^−6 cm/s
Papp B-A (Caco-2 monolayers [4]): 1.8 ± 0.25 × 10^−6 cm/s

COC(=O)[C@H]1[C@@H](OC(=O)c2ccccc2)C[C@@H]2CC[C@H]1N2C [cocaine]
DA increase ([5]; 3 mg/kg i.v., similar microdialysis technique, ref Baumann et al.[41]): six-fold
DA elevation ([5]; 5 mg/kg i.v., identical stereotaxic coordinates): 10 fold
